The values below come from patent US11447496B2, “Nitrogen-containing fused heterocyclic ring compound and application thereof” (GUANGZHOU CHINARAY OPTOELECTRONIC MATERIALS LTD., priority 2016, dated 2022).

In brackets after ≈: the same amount, converted by molar mass. Where two headings read alike, the source gives them in different places.

Usually solubility stands for the concentration that dissolves in the medium under given conditions.

The nature of this data set: Solubility in toluene, xylene and chloroform at 25° C. The class given is physicochemical. The following applies: organic solvent or mixture. The method, then: 1. A solubility (mg/mL) of compounds of Examples 1 to 11 and CBP, i.e., 4,4′-bis(9H-carbazol-9-yl)biphenyl, in toluene, xylene and chloroform was measured. The test temperature was 25° C.
Setting [1] is: chloroform, in chloroform, read-out: Solubility Chloroform.
The mark [2] stands for this setting: chloroform, in chloroform, read-out: solubility in chloroform (text summary of Table 1).
The mark [3] stands for this setting: toluene, in toluene, read-out: Solubility Toluene.
[4] abbreviates: toluene, in toluene, read-out: solubility in toluene (text summary of Table 1).
Where [5] appears, read: xylene, in xylene, read-out: Solubility Xylene.
[6] abbreviates: xylene, in xylene, read-out: solubility in xylene (text summary of Table 1).

In the case of `CC1(C)c2ccccc2N(c2ccccc2)c2cc3c(cc21)N(c1nc(-c2ccccc2)cc(-c2cccc4c2-c2ccccc2C42c4ccccc4-c4ccccc42)n1)c1ccccc1C3(C)C` [Example 7], the solubility by setting is: under setting [1], 473 mg/mL (≈ 534 mM); under setting [2], more than 300 mg/mL; under setting [3], 362 mg/mL (≈ 409 mM); under setting [4], more than 200 mg/mL; under setting [5], 405 mg/mL (≈ 458 mM); under setting [6], more than 240 mg/mL.

As for `CC1(C)c2ccccc2N(c2nc(-c3ccccc3)nc(-c3ccc4c(c3)-c3ccccc3C43c4ccccc4-c4ccccc43)n2)c2cc3c(cc21)c1ccccc1n3-c1ccccc1` [Example 5], the solubility is, setting by setting: under setting [1], 445 mg/mL (≈ 527 mM); under setting [2], more than 300 mg/mL; under setting [3], 330 mg/mL (≈ 391 mM); under setting [4], more than 200 mg/mL; under setting [5], 376 mg/mL (≈ 445 mM); under setting [6], more than 240 mg/mL.

As to `c1ccc(-c2nc(-c3cccc4c3-c3ccccc3C43c4ccccc4-c4ccccc43)nc(-n3c4ccccc4c4ccc5c6ccccc6n(-c6ccccc6)c5c43)n2)cc1` [Example 1], the solubility runs as follows: under setting [1], 410 mg/mL (≈ 511 mM); under setting [2], more than 300 mg/mL; under setting [3], 250 mg/mL (≈ 312 mM); under setting [4], more than 200 mg/mL; under setting [5], 320 mg/mL (≈ 399 mM); under setting [6], more than 240 mg/mL.

For `c1ccc(-c2nc(-c3ccc4c(c3)C3(c5ccccc5Sc5ccccc53)c3ccccc3-4)nc(-n3c4ccccc4c4ccc5c6ccccc6n(-c6ccccc6)c5c43)n2)cc1` [Example 9], the solubility was 434 mg/mL (≈ 520 mM) under setting [1]; more than 300 mg/mL under setting [2]; 285 mg/mL (≈ 342 mM) under setting [3]; more than 200 mg/mL under setting [4]; 354 mg/mL (≈ 424 mM) under setting [5]; more than 240 mg/mL under setting [6].

`c1ccc(-c2cc(-c3ccc4c(c3)-c3ccccc3C43c4ccccc4-c4ccccc43)nc(N3c4ccccc4Oc4ccc5c(c43)c3ccccc3n5-c3ccccc3)n2)cc1` [Example 4]: the solubility under setting [1] turned out to be 430 mg/mL (≈ 526 mM); the solubility under setting [2] was more than 300 mg/mL; the solubility under setting [3] worked out at 305 mg/mL (≈ 373 mM); the solubility under setting [4] was more than 200 mg/mL; the solubility under setting [5] came to 362 mg/mL (≈ 443 mM); the solubility under setting [6] is more than 240 mg/mL.

In the case of `CC1(C)c2ccccc2N(c2nc(-c3ccccc3)nc(-c3cccc4c3-c3ccccc3C43c4ccccc4-c4ccccc43)n2)c2ccc3c4ccccc4n(-c4ccccc4)c3c21` [Example 6], the solubility was 460 mg/mL (≈ 545 mM) under setting [1]; more than 300 mg/mL under setting [2]; 350 mg/mL (≈ 415 mM) under setting [3]; more than 200 mg/mL under setting [4]; 392 mg/mL (≈ 464 mM) under setting [5]; more than 240 mg/mL under setting [6].

`CC1(C)c2ccccc2-c2ccc3c4ccccc4n(-c4nc(-c5ccccc5)nc(-c5cccc6c5-c5ccccc5C65c6ccccc6-c6ccccc65)n4)c3c21` [Example 8]: the solubility by setting is: under setting [1], 510 mg/mL (≈ 677 mM); under setting [2], more than 300 mg/mL; under setting [3], 400 mg/mL (≈ 531 mM); under setting [4], more than 200 mg/mL; under setting [5], 452 mg/mL (≈ 600 mM); under setting [6], more than 240 mg/mL.

With `c1ccc2c(c1)c1ccccc1n2-c1ccc(-c2ccc(-n3c4ccccc4c4ccccc43)cc2)cc1` [CBP, 4,4′-bis(9H-carbazol-9-yl)biphenyl, reference compound], the solubility by setting is: under setting [1], 185 mg/mL (≈ 382 mM); under setting [3], 130 mg/mL (≈ 268 mM); under setting [5], 153 mg/mL (≈ 316 mM).

In the case of `c1ccc(-c2nc(-c3ccc4c(c3)C3(c5ccccc5-4)c4ccccc4N(c4ccccc4)c4ccccc43)nc(-n3c4ccccc4c4cc5c6ccccc6n(-c6ccccc6)c5cc43)n2)cc1` [Example 10], the solubility under setting [1] was 344 mg/mL (≈ 385 mM); the solubility under setting [2] is more than 300 mg/mL; the solubility under setting [3] amounted to 220 mg/mL (≈ 246 mM); the solubility under setting [4] is more than 200 mg/mL; the solubility under setting [5] is 284 mg/mL (≈ 318 mM); the solubility under setting [6] is more than 240 mg/mL.

As to `[2H]c1cc2c3ccccc3n(-c3nc(-c4ccccc4)cc(-c4ccc5c(c4)-c4ccccc4C54c5ccccc5-c5ccccc54)n3)c2c2c3ccccc3n(-c3ccccc3)c12` [Example 11], the solubility reads like this: under setting [1], 374 mg/mL (≈ 466 mM); under setting [2], more than 300 mg/mL; under setting [3], 268 mg/mL (≈ 334 mM); under setting [4], more than 200 mg/mL; under setting [5], 313 mg/mL (≈ 390 mM); under setting [6], more than 240 mg/mL.

On to `c1ccc(-c2nc(-c3cccc4c3-c3ccccc3C43c4ccccc4-c4ccccc43)nc(-n3c4ccccc4c4c5c6ccccc6n(-c6ccccc6)c5ccc43)n2)cc1` [Example 3], for which the solubility under setting [1] was found to be 285 mg/mL (≈ 355 mM); the solubility under setting [2] was more than 300 mg/mL; the solubility under setting [3] turned out to be 200 mg/mL (≈ 249 mM); the solubility under setting [4] was more than 200 mg/mL; the solubility under setting [5] was 243 mg/mL (≈ 303 mM); the solubility under setting [6] is more than 240 mg/mL.

As to `c1ccc(-c2nc(-c3cccc4c3-c3ccccc3C43c4ccccc4-c4ccccc43)nc(-n3c4ccccc4c4cc5c6ccccc6n(-c6ccccc6)c5cc43)n2)cc1` [Example 2], the solubility is, setting by setting: under setting [1], 294 mg/mL (≈ 367 mM); under setting [2], more than 300 mg/mL; under setting [3], 205 mg/mL (≈ 256 mM); under setting [4], more than 200 mg/mL; under setting [5], 256 mg/mL (≈ 319 mM); under setting [6], more than 240 mg/mL.
